Experimental data from the supplement of paper PMC4977894.
Where a name gives a salt, the structure may show the parent alone. ± gives the standard deviation of the averaged measurements.

Legend:
[1] = test system: Homo sapiens (human subject panel, olfactory perception); test: perceived odor intensity rating (rating 0-100); higher = stronger perceived smell
Method: (§1)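 Human olfactory psychophysics. 55 healthy subjects (after excluding 6 low performers) sniffed 1 mL of each odorant diluted in paraffin oil (vials, two dilutions per molecule, 20 molecules presented twice). Each subject rated intensity, pleasantness and familiarity on a 0-100 slider, starting at 50 and required to move. Ratings were given only when the subject reported detecting a smell; per-subject ratings are averaged over subjects.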

[2] = test system: Homo sapiens (human subject panel, olfactory perception); test: perceived odor pleasantness rating (rating 0-100); higher = more pleasant
Method: as §1

[3] = test system: Homo sapiens (human subject panel, olfactory perception); test: perceived odor familiarity rating (rating 0-100); higher = more familiar
Method: as §1

[4] = odor dilution in paraffin oil: 1/1,000
[5] = odor dilution in paraffin oil: 1/100,000
[6] = odor dilution in paraffin oil: 1/10,000,000
[7] = odor dilution in paraffin oil: 1/10

SMILES	perceived odor intensity rating [1, 4]	perceived odor intensity rating [1, 5]	perceived odor pleasantness rating [2, 4]	perceived odor pleasantness rating [2, 5]	perceived odor familiarity rating [3, 4]	perceived odor familiarity rating [3, 5]	perceived odor intensity rating [1, 6]	perceived odor pleasantness rating [2, 6]	perceived odor familiarity rating [3, 6]	perceived odor intensity rating [1, 7]	perceived odor pleasantness rating [2, 7]	perceived odor familiarity rating [3, 7]
c1ccccc1 [Benzene]	11.2 ± 14	19.8 ± 26	51.7 ± 20	39.4 ± 22	26.1 ± 24	27.4 ± 25	–	–	–	–	–	–
Sc1ccccc1 [Benzenethiol]	–	63.4 ± 34	–	24.6 ± 23	–	45.1 ± 30	13 ± 22	41.9 ± 24	31.3 ± 28	–	–	–
O=C(O)c1ccccc1 [Benzoic acid]	30.3 ± 27	20.2 ± 24	34.9 ± 22	55.5 ± 25	34.4 ± 25	38.7 ± 30	–	–	–	–	–	–
O=C(OCc1ccccc1)c1ccccc1 [Benzyl benzoate]	19.8 ± 24	–	48.6 ± 21	–	42.4 ± 31	–	–	–	–	53.3 ± 30	46.9 ± 24	38.5 ± 26
c1ccc(CSSCc2ccccc2)cc1 [Benzyl disulfide]	63.6 ± 27	–	26.8 ± 22	–	49.1 ± 32	–	–	–	–	81.2 ± 20	24.2 ± 25	48.2 ± 34
c1ccc(COCc2ccccc2)cc1 [Benzyl ether]	25.2 ± 26	–	49.2 ± 23	–	31 ± 26	–	–	–	–	75.7 ± 24	67.8 ± 27	63.8 ± 32
S=C=NCc1ccccc1 [Benzyl isothiocyanate]	80.9 ± 20	55 ± 30	15.1 ± 19	29 ± 23	40.9 ± 32	43.4 ± 26	–	–	–	–	–	–
O=C(Cc1ccccc1)OCc1ccccc1 [Benzyl phenylacetate]	54.4 ± 30	37.4 ± 35	31 ± 26	47 ± 20	49.8 ± 32	37.3 ± 31	–	–	–	–	–	–
CCC(=O)OCc1ccccc1 [Benzyl propionate]	53 ± 30	30 ± 32	67.2 ± 23	44 ± 28	50.7 ± 32	34.5 ± 24	–	–	–	–	–	–
O=C(OCc1ccccc1)c1ccccc1O [Benzyl salicylate]	28.4 ± 28	–	53.6 ± 24	–	38 ± 28	–	–	–	–	48.6 ± 30	57.6 ± 23	40.7 ± 29
c1ccc(-c2ccccc2)cc1 [Biphenyl]	31.7 ± 26	–	51.4 ± 21	–	36.2 ± 28	–	–	–	–	77.6 ± 20	31.3 ± 24	42.5 ± 33
CSCSC [Bis(methylthio)methane]	–	78.7 ± 22	–	25.1 ± 25	–	50.3 ± 34	33.8 ± 26	45.4 ± 25	38.9 ± 31	–	–	–
CC(=O)OC1CC2CCC1(C)C2(C)C (configuration not stated) [Bornyl acetate]	36.1 ± 30	29.9 ± 28	45.2 ± 22	45.7 ± 24	44.2 ± 29	28.9 ± 26	–	–	–	–	–	–
C=CCCCCCCCCC(=O)OCCCC [Butyl 10-undecenoate]	31.9 ± 33	–	42.2 ± 19	–	44.4 ± 32	–	–	–	–	58.1 ± 30	35.1 ± 27	50 ± 30
CCCCOC(=O)[C@H](C)O [Butyl (S)-(-)-lactate]	55.5 ± 29	33.6 ± 34	50.2 ± 28	48.8 ± 23	50.4 ± 32	39.5 ± 25	–	–	–	–	–	–
CCCCOC(=O)CC [Butyl Propionate]	62 ± 25	18 ± 25	54.6 ± 26	46.5 ± 25	50.6 ± 30	31.9 ± 33	–	–	–	–	–	–
CCCCOC=O [Butyl formate]	51.8 ± 32	8.38 ± 15	45.4 ± 28	44.1 ± 28	49.7 ± 29	29.1 ± 29	–	–	–	–	–	–
CCCCOC(=O)Cc1ccccc1 [Butyl phenylacetate]	53.1 ± 31	24.8 ± 25	47.2 ± 28	45.9 ± 22	51.6 ± 30	41.3 ± 32	–	–	–	–	–	–

SMILES	perceived odor intensity rating [1, 4]	perceived odor intensity rating [1, 5]	perceived odor pleasantness rating [2, 4]	perceived odor pleasantness rating [2, 5]	perceived odor familiarity rating [3, 4]	perceived odor familiarity rating [3, 5]	perceived odor intensity rating [1, 6]	perceived odor pleasantness rating [2, 6]	perceived odor familiarity rating [3, 6]	perceived odor intensity rating [1, 7]	perceived odor pleasantness rating [2, 7]	perceived odor familiarity rating [3, 7]
CCCCN [Butylamine]	–	16.3 ± 22	–	50.8 ± 27	–	36 ± 29	21.8 ± 24	44.4 ± 25	32.7 ± 27	–	–	–
Cc1cc(C(C)(C)C)c(O)c(C(C)(C)C)c1 [Butylated hydroxytoluene]	16.9 ± 24	–	51.4 ± 22	–	27.7 ± 29	–	–	–	–	40.3 ± 31	51.9 ± 24	43.4 ± 29
CC12CCC(CC1=O)C2(C)C (configuration not stated) [Camphor]	57.4 ± 30	17.3 ± 20	49.5 ± 25	53.1 ± 22	54.4 ± 30	31.3 ± 29	–	–	–	–	–	–
Cc1ccc(C(C)C)cc1O [Carvacrol]	74.1 ± 20	50.4 ± 26	48 ± 28	53.2 ± 24	62.7 ± 31	58.8 ± 32	–	–	–	–	–	–
OC/C=C/c1ccccc1 [Cinnamyl alcohol]	–	6	–	32	–	52	–	–	–	–	–	–
O=C(O)CC(O)(CC(=O)O)C(=O)O [Citric acid]	14.7 ± 22	–	46.7 ± 28	–	28.5 ± 31	–	–	–	–	27.4 ± 28	51.7 ± 26	33.9 ± 30
O=C1CCCCCC1 [Cycloheptanone]	69 ± 28	26.4 ± 28	40.8 ± 28	55 ± 19	52.7 ± 30	35.8 ± 30	–	–	–	–	–	–
C1CCCCC1 [Cyclohexane]	49 ± 34	–	40.5 ± 24	–	51.6 ± 32	–	–	–	–	57.4 ± 34	48.2 ± 27	55.1 ± 29
O=C(O)CC1CCCCC1 [Cyclohexaneacetic acid]	69.9 ± 22	29.4 ± 30	28.8 ± 22	37.6 ± 23	46.9 ± 28	32.8 ± 25	–	–	–	–	–	–
O=C1CCCCC1 [Cyclohexanone (replicate)]	66.5 ± 26	20.8 ± 29	46 ± 27	55.4 ± 24	51.6 ± 30	28.4 ± 28	–	–	–	–	–	–
O=C1CCCCC1 [Cyclohexanone]	69.9 ± 22	19.6 ± 27	38 ± 27	47.9 ± 23	52.5 ± 28	26.7 ± 25	–	–	–	–	–	–
SC1CCCC1 [Cyclopentanethiol]	–	92.4 ± 10	–	16.5 ± 22	–	55.4 ± 34	78.1 ± 21	24 ± 23	57.8 ± 33	–	–	–
O=C1CCCC1 [Cyclopentanone]	52.3 ± 33	–	36 ± 25	–	33.1 ± 30	–	–	–	–	81.4 ± 23	29.6 ± 25	48.9 ± 34
CC12CCC(CC1=O)C2(C)C [D-Camphor]	63.8 ± 31	–	52.3 ± 28	–	68.5 ± 25	–	–	–	–	89.8 ± 17	52.1 ± 30	81 ± 26
C=C(C)[C@@H]1CC[C@@H](C)C(=O)C1 [D-Dihydrocarvone]	45.9 ± 29	–	50.2 ± 23	–	47.2 ± 28	–	–	–	–	81.9 ± 16	39.5 ± 26	52.5 ± 34
OC[C@@H](O)[C@@H](O)[C@H](O)[C@@H](O)CO [D-Sorbitol]	39 ± 33	–	45 ± 28	–	44.6 ± 31	–	–	–	–	73.4 ± 22	29.8 ± 27	55.1 ± 31
OC1CCC2CCCCC2C1 (configuration not stated) [Decahydro-2-naphthol]	54.8 ± 29	23.1 ± 27	49.9 ± 26	50.6 ± 24	48.7 ± 29	36.3 ± 32	–	–	–	–	–	–
